Assay results: US10047067B2, “Composition for treating kidney disease comprising pyrazole derivative” (Ewha University-Industry Collaboration Foundation, priority 2012, dated 2018)
“Also recorded” adds a separate entry of the source.

Key:
Type in all cases: in vivo
C57BL/6J mice [1] = assay: Collagen accumulation (Masson's trichrome, picrosirius red) and macrophage marker F4/80 immunohistochemical staining of renal tissue; conditions: treatment group vs diabetes group, 10 mg/kg/day oral, 12 weeks; listed as Example 1, 10 mg/kg/day
Experimental: Immunohistochemical staining was performed as previously disclosed (Noh H, Kim J S, Han K-H, Lee G T, Song J S, Chung S H, Jeon J S, Ha H, Lee H B: Oxidative stress during peritoneal dialysis: implications in functional and structural changes in the membrane. Kidney Int. 69: 2022-2028, 2006).
Briefly, as described in Example 11, diabetes was induced in mice that were then treated with 1-(pyridin-2-yl)-3-phenyl-4-propyl-1H-pyrazol-5-ol.HCl, the compound of Example 1, and scarified 12 weeks later. After cardiac perfusion with 0.1 M PBS (phosphate-buffered saline), tissue fixation was performed overnight with 2% PLP (paraformaldehyde-lysine-periodate). Paraffin embedding was conducted by sequential treatment with: 70% ethanol for 1 hr; 80% ethanol for 1 hr; 90% ethanol for 1 hr; 95% ethanol for 1 hr, twice; 100% ethanol for 1 hr, three times; xylene for 30 min, twice; paraffin for 30 min; and paraffin for 1.5 hrs. The paraffin tissue was sliced into a section 4 μm thick, followed by deparaffinization with alcohol. In order to enhance antibody penetration thereinto, the renal tissue was immersed in 10 mM citrate buffer (pH 6.0), heated with microwaves (at 700 watts for 5 min and then at 100 watts for 5 min), and then finally incubated at room temperature for 30 min Intrinsic peroxidase was removed by treatment with peroxidase blocking reagent (Peroxidase Blocking Reagent Ready-To-Use, Dakocytomation) for 30 min. Subsequently, the renal tissue was incubated with a protein block serum-free solution (Protein Blocking Serum-Free Ready-To-Use, Dakocytomation) for 15 min and then overnight with a primary antibody (F4/80, Santa Cruz) at 4° C., followed by amplification with ABC kit (Santa Cruz) using the ABC (avidin-biotin-enzyme complex) method. […]
To examine tissue injury, staining was performed with Masson's trichrome (Sigma-Aldrich) and picrosirius red (Sigma-Aldrich) according to the manufacturer's instructions. The degree of tissue injury was expressed as tubulointerstitial collagen accumulation per area. […]

C57BL/6J mice [2] = assay: Renal fibrosis: real-time PCR analysis of renal tissues; conditions: renal tissue, treatment group vs diabetes group, 12 weeks
Experimental: Total RNA was isolated using Trizol reagent (Invitrogen) according to the manufacturer's instruction. The total RNA isolate was used for real-time PCR.
Briefly, as described in Example 10, diabetes was induced, and 1-(pyridin-2-yl)-3-phenyl-4-propyl-1H-pyrazol-5-ol.HCl, the compound of Example 1 of the present invention, was administered to the mice that were sacrificed 12 weeks later. Then, renal tissues were excised from the mice and homogenized with a predetermined amount (500 μl) of Trizol reagent (Invitrogen), followed by centrifuging the homogenate (13,000 rpm, 10 min). The supernatant was reacted with 200 μl of chloroform for 15 min and centrifuged. The total RNA was precipitated with isopropyl alcohol, and washed with 75% ethyl alcohol before use in experiments. From 2 μg of total RNA, cDNA was synthesized using a reverse transcription kit (Applied Biosystems), and selective mRNA was quantitatively analyzed in ABI 7300 real-time PCR thermal cycler (Applied Biosystems) with the aid of SYBR Green PCR Master Mix kit according to the manufacturer's instruction. Each experiment was run in duplicate with 20 μl. For correct quantitation and identification of results from a single product, a standard curve and a dissociation curve were employed. PCR was performed with 40 thermal cycles of 95° C. for 15 sec and 56° C. for 1 min.
In FIG. 3, the control (WT) stands for a group in which type 1 diabetes mellitus was not induced, the diabetes group (DM) for a group in which type 1 diabetes mellitus was induced, and the treatment group (DM+compound of Example 1) for a group that was treated with the compound of Example 1 after introduction of type 1 diabetes mellitus. Data of FIG. 3 are expressed as mean±standard error (SE) from 8 to 12 mice per group. Statistic comparison among the groups was analyzed by ANOVA and Fisher's least significant difference test, with significance at p<0.05. *P<0.05 vs. WT, †P<0.05 vs. DM.

C57BL/6J mice [3] = assay: Glomerular hypertrophy and glomerular mesangial expansion (PAS staining of kidney); conditions: treatment group vs diabetes group, 10 mg/kg/day oral, 12 weeks
Experimental: For morphological analysis for examining glomerular hypertrophy and glomerular mesangial cell formation, a staining method was used as disclosed previously (Lee E A, Seo J Y, Jiang Z, Yu M R, Kwon M K, Ha H, Lee H B: Reactive oxygen species mediate high glucose-induced plasminogen activator inhibitor-1 up-regulation in mesangial cells and in diabetic kidney. Kidney Int. 67:1762-71, 2005). As described in Example 10, diabetes was induced in mice that were then treated with 1-(pyridin-2-yl)-3-phenyl-4-propyl-1H-pyrazol-5-ol.HCl, the compound of Example 1, and scarified 12 weeks later. After cardiac perfusion with 0.1 M PBS (phosphate-buffered saline), tissue fixation was performed overnight with 2% PLP (paraformaldehyde-lysine-periodate). […] In one renal tissue, 30 glomeruli were scanned, and measured for size and mesangial cell formation, using Image-Pro Plus 4.5 Software (MEDIA CYBERNETICS). The glomerular size was calculated according to Equation 1. […] Data of FIG. 1 are expressed as mean±standard error (SE) from 8 to 12 mice per group. Statistic comparison among the groups was analyzed by ANOVA and Fisher's least significant difference test, with significance at p<0.05. *P<0.05 vs. WT, †P<0.05 vs DM.

Structure (SMILES): CCCc1c(-c2ccccc2)nn(-c2ccccn2)c1O.Cl [Compound 18-278, 1-(pyridin-2-yl)-3-phenyl-4-propyl-1H-pyrazol-5-ol.HCl]
- collagen accumulation, Masson's trichrome staining (blue area) (C57BL/6J mice [1]): in a smaller area than was the diabetes group; also recorded: significantly reduced
- collagen accumulation, picrosirius red staining (red area) (C57BL/6J mice [1]): a smaller area; also recorded: significantly reduced
- macrophage production, immunohistochemical staining (F4/80) (C57BL/6J mice [1]): in a smaller area than was the diabetes group; also recorded: significantly reduced
- expression level of Collagen Iα1 mRNA to 18S rRNA (C57BL/6J mice [2]): significantly decreased
- expression level of F4/80 mRNA to 18S rRNA (C57BL/6J mice [2]): significantly decreased
- expression level of TGF-β1 mRNA to 18S rRNA (C57BL/6J mice [2]): significantly decreased
- expression level of collagen IV mRNA to 18S rRNA (C57BL/6J mice [2]): significantly decreased
- expression level of fibronectin mRNA to 18S rRNA (C57BL/6J mice [2]): significantly decreased
- glomerular mesangial expansion (fractional mesangial area) (C57BL/6J mice [3]): reduced to the level of the control
- glomerular size (glomerular volume) (C57BL/6J mice [3]): significantly smaller than that of the diabetes group
